Measurements as given in ChEMBL document CHEMBL5131517 (ACS Med Chem Lett, 2022).

Experiments:
[1] = target: 5-hydroxytryptamine receptor 1B (Homo sapiens, UniProt P28222); assay: Inhibition of 5HT1B receptor (unknown origin); details: concentration not given here
[2] = target: Alpha-2C adrenergic receptor (Homo sapiens, UniProt P18825); assay: Binding affinity to alpha2c (unknown origin) assessed as inhibition constant
[3] = target: 5-hydroxytryptamine receptor 3A (Homo sapiens) (UniProt P46098); assay: Inhibition of 5HT3 receptor (unknown origin); details: concentration not given here
[4] = target: T1, 5-hydroxytryptamine receptor 2C (Homo sapiens) (UniProt P28335); assay: Agonist activity at human 5HT2C receptor stably expressed in Flp-In-T-REx-293 cells assessed as maximal Gq-mediated calcium flux by Fluo-4 direct dye based FLIPR Tetra assay relative to control; type: functional, cell-based; details: filed as agonist
T1 sequence (whole entry): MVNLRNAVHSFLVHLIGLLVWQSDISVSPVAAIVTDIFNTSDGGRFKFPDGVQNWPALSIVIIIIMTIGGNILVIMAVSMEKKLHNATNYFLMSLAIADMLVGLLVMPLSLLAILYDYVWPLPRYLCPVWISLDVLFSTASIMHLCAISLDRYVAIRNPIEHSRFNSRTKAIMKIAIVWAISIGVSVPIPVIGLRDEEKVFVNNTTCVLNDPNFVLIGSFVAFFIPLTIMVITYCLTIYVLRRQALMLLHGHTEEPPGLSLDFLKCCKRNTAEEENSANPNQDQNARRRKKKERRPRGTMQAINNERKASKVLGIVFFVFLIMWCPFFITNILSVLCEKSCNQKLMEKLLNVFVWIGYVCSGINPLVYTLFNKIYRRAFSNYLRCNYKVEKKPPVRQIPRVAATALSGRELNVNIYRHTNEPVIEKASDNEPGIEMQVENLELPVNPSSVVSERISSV

[5] = target: Histamine H2 receptor (Homo sapiens) (UniProt P25021); assay: Inhibition of H2 receptor (unknown origin); details: concentration not given here
[6] = target: Sigma intracellular receptor 2 (Homo sapiens, UniProt Q5BJF2); assay: Binding affinity to sigma 2 receptor (unknown origin) assessed as inhibition constant
[7] = target: T2, Beta-1 adrenergic receptor (Homo sapiens, UniProt P08588); assay: Binding affinity to beta1 receptor (unknown origin) assessed as inhibition constant
Target sequence in this assay (P08588 whole entry): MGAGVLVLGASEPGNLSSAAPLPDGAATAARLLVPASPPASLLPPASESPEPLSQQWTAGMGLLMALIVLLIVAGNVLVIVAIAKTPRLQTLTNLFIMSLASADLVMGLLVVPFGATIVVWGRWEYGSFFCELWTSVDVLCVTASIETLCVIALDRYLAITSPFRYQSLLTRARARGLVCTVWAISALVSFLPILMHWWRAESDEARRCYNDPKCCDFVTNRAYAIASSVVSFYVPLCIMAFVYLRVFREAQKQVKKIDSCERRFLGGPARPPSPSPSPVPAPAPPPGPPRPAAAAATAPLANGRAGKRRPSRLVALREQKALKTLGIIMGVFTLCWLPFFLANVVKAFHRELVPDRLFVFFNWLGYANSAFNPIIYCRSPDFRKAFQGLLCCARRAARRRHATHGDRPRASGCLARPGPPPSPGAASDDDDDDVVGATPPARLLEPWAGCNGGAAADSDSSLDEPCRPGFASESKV

[8] = target: 5-hydroxytryptamine receptor 1E (Homo sapiens, UniProt P28566); assay: Inhibition of 5HT1E receptor (unknown origin); details: concentration not given here
[9] = target: T3, 5-hydroxytryptamine receptor 2C (Homo sapiens, UniProt P28335); assay: Binding affinity to 5HT2C receptor (unknown origin) assessed as inhibition constant
T3 sequence (P28335 whole entry): T1 sequence (whole entry)

[10] = target: D(4) dopamine receptor (Homo sapiens) (UniProt P21917); assay: Inhibition of D4 receptor (unknown origin); details: concentration not given here
[11] = target: 5-hydroxytryptamine receptor 7 (Homo sapiens, UniProt P34969); assay: Binding affinity to 5HT7 receptor (unknown origin) assessed as inhibition constant
[12] = target: Translocator protein (Homo sapiens) (UniProt P30536); assay: Inhibition of peripheral benzodiazepine receptor (unknown origin); details: concentration not given here
D(4) dopamine receptor = D(4) dopamine receptor (Homo sapiens, UniProt P21917); assay: Binding affinity to D4 receptor (unknown origin) assessed as inhibition constant
[13] = target: Sigma non-opioid intracellular receptor 1 (Homo sapiens, UniProt Q99720); assay: Inhibition of sigma 1 receptor (unknown origin); details: concentration not given here
[14] = target: Sodium-dependent serotonin transporter (Homo sapiens, UniProt P31645); assay: Binding affinity to SERT receptor (unknown origin) assessed as inhibition constant
[15] = target: T2, Beta-1 adrenergic receptor; assay: Inhibition of beta1 receptor (unknown origin); details: concentration not given here
Target sequence in this assay (P08588 whole entry, looked up): as the sequence (P08588 whole entry) above

[16] = target: 5-hydroxytryptamine receptor 3A (Homo sapiens, UniProt P46098); assay: Binding affinity to 5HT3 receptor (unknown origin) assessed as inhibition constant
D(3) dopamine receptor = D(3) dopamine receptor (Homo sapiens, UniProt P35462); assay: Binding affinity to D3 receptor (unknown origin) assessed as inhibition constant
Chain of D(3) dopamine receptor (P35462 whole entry): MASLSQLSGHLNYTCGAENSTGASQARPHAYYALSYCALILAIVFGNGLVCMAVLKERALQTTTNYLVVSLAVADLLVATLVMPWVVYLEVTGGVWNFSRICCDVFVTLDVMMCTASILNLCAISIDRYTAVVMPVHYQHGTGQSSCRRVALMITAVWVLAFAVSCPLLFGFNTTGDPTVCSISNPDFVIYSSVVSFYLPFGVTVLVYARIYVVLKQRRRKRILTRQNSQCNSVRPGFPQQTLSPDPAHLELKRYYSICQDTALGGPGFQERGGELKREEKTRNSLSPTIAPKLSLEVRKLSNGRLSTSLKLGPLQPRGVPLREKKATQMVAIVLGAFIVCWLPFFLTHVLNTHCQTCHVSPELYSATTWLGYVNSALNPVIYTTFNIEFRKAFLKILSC

Chain of Histamine H2 receptor (Homo sapiens) (P25021 whole entry): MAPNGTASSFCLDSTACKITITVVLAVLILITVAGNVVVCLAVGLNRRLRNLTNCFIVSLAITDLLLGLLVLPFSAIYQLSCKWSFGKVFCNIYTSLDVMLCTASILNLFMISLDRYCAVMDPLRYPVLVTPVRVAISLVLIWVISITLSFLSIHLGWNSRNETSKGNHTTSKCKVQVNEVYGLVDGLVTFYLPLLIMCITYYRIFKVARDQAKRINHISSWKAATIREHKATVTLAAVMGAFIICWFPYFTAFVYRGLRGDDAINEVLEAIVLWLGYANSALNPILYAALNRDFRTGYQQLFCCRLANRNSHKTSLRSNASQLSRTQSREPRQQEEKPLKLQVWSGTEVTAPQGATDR
Chain of Translocator protein (Homo sapiens) (P30536 whole entry): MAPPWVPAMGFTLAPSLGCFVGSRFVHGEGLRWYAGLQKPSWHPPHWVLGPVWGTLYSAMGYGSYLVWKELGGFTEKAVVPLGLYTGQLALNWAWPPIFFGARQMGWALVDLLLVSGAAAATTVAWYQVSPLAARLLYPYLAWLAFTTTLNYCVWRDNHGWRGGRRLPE
Chain of 5-hydroxytryptamine receptor 7 (P34969 whole entry): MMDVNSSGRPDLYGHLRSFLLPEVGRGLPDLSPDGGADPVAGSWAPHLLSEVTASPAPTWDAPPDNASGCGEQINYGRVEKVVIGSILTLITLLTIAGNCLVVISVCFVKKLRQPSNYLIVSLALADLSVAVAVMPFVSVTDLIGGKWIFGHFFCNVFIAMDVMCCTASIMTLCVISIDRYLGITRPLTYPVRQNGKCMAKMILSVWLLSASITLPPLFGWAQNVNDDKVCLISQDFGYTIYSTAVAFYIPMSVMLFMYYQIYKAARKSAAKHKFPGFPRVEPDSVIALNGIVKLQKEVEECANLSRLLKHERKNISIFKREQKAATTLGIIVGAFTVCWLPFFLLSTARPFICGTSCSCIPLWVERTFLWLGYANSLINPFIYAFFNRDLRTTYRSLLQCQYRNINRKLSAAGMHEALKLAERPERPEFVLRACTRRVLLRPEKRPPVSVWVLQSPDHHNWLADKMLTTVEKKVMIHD
Chain of 5-hydroxytryptamine receptor 3A (Homo sapiens) (P46098 whole entry): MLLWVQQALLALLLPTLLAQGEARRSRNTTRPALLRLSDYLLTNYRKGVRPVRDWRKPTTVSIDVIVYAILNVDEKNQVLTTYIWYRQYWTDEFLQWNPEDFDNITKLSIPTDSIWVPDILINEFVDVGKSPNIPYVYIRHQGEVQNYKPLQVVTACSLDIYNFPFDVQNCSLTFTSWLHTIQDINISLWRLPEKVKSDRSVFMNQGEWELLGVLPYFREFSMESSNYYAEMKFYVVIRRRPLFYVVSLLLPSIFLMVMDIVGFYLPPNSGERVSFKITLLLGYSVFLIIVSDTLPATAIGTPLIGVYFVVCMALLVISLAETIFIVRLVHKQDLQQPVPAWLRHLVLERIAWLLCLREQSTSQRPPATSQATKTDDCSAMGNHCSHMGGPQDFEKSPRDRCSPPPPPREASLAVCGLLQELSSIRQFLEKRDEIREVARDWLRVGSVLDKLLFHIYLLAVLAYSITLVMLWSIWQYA
Chain of 5-hydroxytryptamine receptor 3A (P46098 whole entry): as above
Chain of D(4) dopamine receptor (Homo sapiens) (P21917 whole entry): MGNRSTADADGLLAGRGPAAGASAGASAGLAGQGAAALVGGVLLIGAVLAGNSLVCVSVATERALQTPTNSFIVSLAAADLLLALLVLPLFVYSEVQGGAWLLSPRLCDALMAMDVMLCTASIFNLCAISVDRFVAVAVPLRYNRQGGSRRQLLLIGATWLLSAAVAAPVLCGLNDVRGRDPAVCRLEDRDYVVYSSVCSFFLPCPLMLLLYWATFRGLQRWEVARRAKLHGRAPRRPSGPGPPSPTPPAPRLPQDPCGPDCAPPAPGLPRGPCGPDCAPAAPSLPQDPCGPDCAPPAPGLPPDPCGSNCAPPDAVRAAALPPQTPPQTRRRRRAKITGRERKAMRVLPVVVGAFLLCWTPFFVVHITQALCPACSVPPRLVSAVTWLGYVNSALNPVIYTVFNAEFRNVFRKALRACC
Chain of D(4) dopamine receptor (P21917 whole entry): as above
Chain of 5-hydroxytryptamine receptor 1E (P28566 whole entry): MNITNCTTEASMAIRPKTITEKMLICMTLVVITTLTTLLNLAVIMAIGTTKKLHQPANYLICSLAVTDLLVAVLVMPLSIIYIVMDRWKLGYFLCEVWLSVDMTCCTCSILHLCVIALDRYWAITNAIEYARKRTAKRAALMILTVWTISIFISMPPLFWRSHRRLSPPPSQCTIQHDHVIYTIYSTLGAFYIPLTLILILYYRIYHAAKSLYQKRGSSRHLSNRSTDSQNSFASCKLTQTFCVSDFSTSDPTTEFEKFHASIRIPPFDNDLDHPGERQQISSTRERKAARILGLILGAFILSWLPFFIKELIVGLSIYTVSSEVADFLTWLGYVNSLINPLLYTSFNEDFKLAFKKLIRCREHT
Chain of 5-hydroxytryptamine receptor 1B (P28222 whole entry): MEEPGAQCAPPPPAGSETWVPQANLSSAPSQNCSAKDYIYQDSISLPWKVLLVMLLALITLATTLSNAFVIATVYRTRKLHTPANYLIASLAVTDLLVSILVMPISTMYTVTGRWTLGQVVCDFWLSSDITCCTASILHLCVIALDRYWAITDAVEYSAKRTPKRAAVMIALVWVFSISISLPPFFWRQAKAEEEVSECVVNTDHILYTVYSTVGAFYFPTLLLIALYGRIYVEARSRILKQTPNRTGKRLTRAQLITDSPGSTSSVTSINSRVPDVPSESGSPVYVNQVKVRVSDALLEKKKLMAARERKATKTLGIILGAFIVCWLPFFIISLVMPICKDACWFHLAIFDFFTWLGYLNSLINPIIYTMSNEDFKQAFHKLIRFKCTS
Chain of Sigma intracellular receptor 2 (Q5BJF2 whole entry): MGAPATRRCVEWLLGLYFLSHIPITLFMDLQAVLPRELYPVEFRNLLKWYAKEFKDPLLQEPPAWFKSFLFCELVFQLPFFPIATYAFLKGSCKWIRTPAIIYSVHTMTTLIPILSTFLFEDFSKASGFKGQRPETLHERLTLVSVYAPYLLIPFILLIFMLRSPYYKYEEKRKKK
Chain of Alpha-2C adrenergic receptor (P18825 whole entry): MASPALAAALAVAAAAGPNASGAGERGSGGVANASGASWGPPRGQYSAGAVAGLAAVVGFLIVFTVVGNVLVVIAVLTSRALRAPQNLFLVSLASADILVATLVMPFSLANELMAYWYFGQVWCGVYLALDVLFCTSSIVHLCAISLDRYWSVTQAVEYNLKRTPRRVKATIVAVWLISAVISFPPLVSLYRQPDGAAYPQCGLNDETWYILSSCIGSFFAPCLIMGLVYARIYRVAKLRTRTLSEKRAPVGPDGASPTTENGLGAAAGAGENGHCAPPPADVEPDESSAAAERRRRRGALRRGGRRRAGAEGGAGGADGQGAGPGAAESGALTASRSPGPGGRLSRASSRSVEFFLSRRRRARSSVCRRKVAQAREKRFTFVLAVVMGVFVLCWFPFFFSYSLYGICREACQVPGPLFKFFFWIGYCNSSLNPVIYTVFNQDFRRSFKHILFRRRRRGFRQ
Chain of Sigma non-opioid intracellular receptor 1 (Q99720 whole entry): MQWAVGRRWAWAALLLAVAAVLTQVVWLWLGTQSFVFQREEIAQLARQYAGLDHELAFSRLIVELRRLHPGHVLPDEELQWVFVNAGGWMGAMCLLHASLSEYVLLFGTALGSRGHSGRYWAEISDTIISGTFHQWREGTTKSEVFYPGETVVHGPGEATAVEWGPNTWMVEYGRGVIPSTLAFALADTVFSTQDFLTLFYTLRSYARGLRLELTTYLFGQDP

SMILES | inhibition [1] [%] | Ki [2] [nM] | inhibition [3] [%] | Emax [4] [%] | inhibition [5] [%] | Ki [6] [nM] | Ki [7] [nM] | inhibition [8] [%] | Ki [9] [nM] | inhibition [10] [%] | Ki [11] [nM] | inhibition [12] [%] | Ki (D(4) dopamine receptor) [nM] | inhibition [13] [%] | Ki [14] [nM] | inhibition [15] [%] | Ki [16] [nM] | Ki (D(3) dopamine receptor) [nM] | inhibition ([14]; filed as agonist, concentration not given here) [%]
COc1cc(OC)c(C2NCCc3c2[nH]c2ccc(F)cc32)cc1OC (stereo not given) | < 50 | 964 | < 50 | 111 | < 50 | 2330 | 961 | < 50 | 671 | < 50 | 249 | < 50 |  |  |  |  |  |  | 
COc1ccc(C2NCCc3c2[nH]c2ccc(F)cc32)c(O)c1 (stereo not given) |  |  | < 50 | 105 | < 50 |  |  |  | 49.8 |  | 25.4 | < 50 | 362 | < 50 | 1840 | < 50 |  |  | 
COc1cc(OC)c(C2NCCc3c2[nH]c2ccc(Cl)cc32)cc1OC (stereo not given) |  |  |  | 97.5 | < 50 |  | 1470 |  | 25.2 | < 50 | 2.5 | < 50 |  |  |  |  | 2780 |  | 
COc1ccc(C2NCCc3c2[nH]c2ccc(Cl)cc32)c(O)c1 (stereo not given) |  |  |  | 97.2 | < 50 |  |  |  | 35.9 |  | 7.98 | < 50 | 609 |  |  | < 50 | 2790 | 1250 | < 50
